biological target: T1, human Kv7.2 (Homo sapiens, UniProt O43526); assay: activation (potentiation) of Kv7.2 current, SyncroPatch 384 electrophysiology in CHO cells stably expressing human Kv7.2; type: cell-based; conditions: human Kv7.2 in CHO cells; in presence of 5.6 μM zinc pyrithione; % activation relative to 30 μM ML-213
T1 construct: expressed in transfected cells
Procedure: The potency of Kv7 potentiators was determined using the SyncroPatch 384 (Nanion) high throughput electrophysiology platform.
CHO cells stably expressing either human Kv7.2, Kv7.4 or Kv7.5/7.3 under a constitutive CMV promoter were used for these studies. Cells were maintained in F12 Hams+1 mM L-glutamine (Hyclone) supplemented with 10% FBS (Sigma), 0.3×NEAA (Non-essential Gamino-acids) and 400 ug/ml G418 at 37° C. in 5% CO2. Cells were cultured in T-225 flasks (Nunc) for 2-3 days to reach 85-95% confluence prior to electrophysiological recording.
Earle's balanced salt solution (in mM): 135 NaCl, 5.4 KCl, 5 Glucose, 2 CaCl2), 1 MgCl2, 5 HEPES, pH 7.4. Seal enhancer solution (in mM): 90 NaCl, 3 KCl, 35 CaCl2), 10 MgCl2, 10 HEPES, pH 7.4. Extracellular recording solution (in mM): 71 NaCl, 70 NMDG, 13 KCl. 5 Glucose, 2 CaCl2, 1 MgCl2, 10 HEPES, pH 7.4. Intracellular recording solution (in mM): 130 KF, 20 KCl, 4 EGTA, 10 HEPES, 2 EDTA, 0.01 Escin, pH 7.2.
Cells were harvested for electrophysiological recording upon reaching appropriate confluence. Cells were first washed in DPBS (Hyclone, Cat #SH30028.03) and then 2 ml of Accutase (MP Biomedicals #1000449) was added at 28° C. until ~90% of cells were suspended. F12 HAM's media+1 mM L-glutamine (Hyclone, SH30026.02) was then added to the flask to dilute the accutase. Cells were then triturated until a single cell suspension was achieved, a cell count was performed, and cells were centrifuged for 2 min. at 1,000 rpm. Media was then aspirated, and cells were resuspended in Earle's balanced salt solution to a concentration of 0.75×10^6 cells/ml and allowed to recover for 25 min at 10° C.
At the beginning of each assay, 20 μl of cell suspension was dispensed into each well of a multi-hole 384-well SyncroPatch chip by the onboard pipettor. Cell sealing was initiated, and seal enhancer solution was added to facilitate seal formation. Upon completion of sealing, cells were washed 3 times with extracellular recording solution and the assay voltage protocol was started. Human Kv7.2, Kv7.4 or Kv7.5/7.3 channels were evaluated using a voltage protocol in which cells were voltage-clamped at a holding potential of −60 mV. Potassium currents were continuously activated with a series of three voltage steps to −30 mV for 3 seconds, 40 mV for 1 second and −90 mV for 4 seconds with 12 seconds between successive voltage sweeps. Potassium currents were measured from the −90 mV repolarizing step. Baseline current was assessed for 3.5 minutes prior to the addition of 5.6 μM zinc pyrithione (1 μM for Kv7.4). Kv7.2, Kv7.4 or Kv7.5/7.3 current in the presence of zinc pyrithione was acquired over five minutes to allow channels to reach steady state activity prior to addition of test agents. Channel activity was monitored for three minutes preceding the addition of 30 μM ML-213 (3 minutes) to achieve maximum activation. 150 mM TEA with 10 μM XE-991 was applied for 2 minutes to measure the leak current during maximum inhibition of Kv7.2, Kv7.4 or Kv7.5/7.3 channels.
Data were collected on the SyncroPatch platform using PatchControl software (Nanion) and processed and analyzed using DataControl Software (Nanion). Percent activation was calculated from potassium current as follows: The average current for the 5 sweeps in the presence of zinc pyrithione immediately preceding test agent addition was taken as the ‘control’ data. Likewise, the average potassium current in the presence of test agents 5 sweeps immediately preceding addition of 30 μM ML-213 was determined for ‘drug’ data. The average potassium current 5 sweeps immediately prior to addition of 150 mM TEA+10 μM XE-991 was determined for ‘max activation’ data while average currents from 5 sweeps immediately following addition of TEA was determined for ‘max inhibition’ data. Percent activation for each of the 384-wells of a sealchip was calculated as ((‘drug’−‘max inhibition’)/(‘max activation’−‘max inhibition’))*100 with Pipeline Pilot (Accelrys). […]

T1 sequence (O43526 whole entry): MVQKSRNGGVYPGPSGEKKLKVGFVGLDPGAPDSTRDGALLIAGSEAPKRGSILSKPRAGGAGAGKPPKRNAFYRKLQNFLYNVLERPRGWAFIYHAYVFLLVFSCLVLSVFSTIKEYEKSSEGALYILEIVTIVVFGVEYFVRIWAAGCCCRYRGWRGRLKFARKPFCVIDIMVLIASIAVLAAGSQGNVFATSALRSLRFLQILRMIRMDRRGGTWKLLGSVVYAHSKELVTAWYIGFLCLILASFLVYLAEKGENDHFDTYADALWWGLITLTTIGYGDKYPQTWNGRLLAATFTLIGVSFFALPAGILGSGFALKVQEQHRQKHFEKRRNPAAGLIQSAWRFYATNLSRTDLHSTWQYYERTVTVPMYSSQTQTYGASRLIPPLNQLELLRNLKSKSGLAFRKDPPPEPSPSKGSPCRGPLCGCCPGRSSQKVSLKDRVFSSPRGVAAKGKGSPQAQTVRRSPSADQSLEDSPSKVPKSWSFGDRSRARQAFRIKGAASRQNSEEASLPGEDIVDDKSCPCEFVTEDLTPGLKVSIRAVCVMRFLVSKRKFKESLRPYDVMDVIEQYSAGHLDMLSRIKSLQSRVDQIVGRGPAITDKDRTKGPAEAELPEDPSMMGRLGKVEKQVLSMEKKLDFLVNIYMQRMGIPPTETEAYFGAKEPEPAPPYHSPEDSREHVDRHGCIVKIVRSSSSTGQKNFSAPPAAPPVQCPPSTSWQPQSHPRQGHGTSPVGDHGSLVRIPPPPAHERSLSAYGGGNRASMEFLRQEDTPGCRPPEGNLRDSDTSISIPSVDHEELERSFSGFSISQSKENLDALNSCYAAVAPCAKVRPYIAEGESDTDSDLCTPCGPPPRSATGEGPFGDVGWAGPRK

| Compound | EC50 [µM] |
| --- | --- |
| COC(C)(CNC(=O)C1CC1c1ccccc1F)c1cccc(Cl)c1 (stereo not drawn) [Example 43, N-[2-(3-chlorophenyl)-2-methoxy-propyl]-2-(2-fluorophenyl)cyclopropanecarbox-amide] | 0.11 |
| COC(C)(CNC(=O)C1CC1c1ccc(Cl)cc1)c1cccc(Cl)c1 (stereo not drawn) [Example 44, 2-(4-chlorophenyl)-N-[2-(3-chlorophenyl)-2-methoxy-propyl]cyclopropanecarboxamide] | 0.9 |
| COC(C)(CNC(=O)/C=C/c1ccccc1F)c1cccc(Cl)c1 (stereo not drawn) [Example 47, (E)-N-[2-(3-chlorophenyl)-2-methoxy-propyl]-3-(2-fluorophenyl)prop-2-enamide] | 7.51 |
| N#Cc1cccc([C@]2(CNC(=O)[C@H]3C[C@@H]3c3ccccc3)CCO2)c1 [Example 49, (1S,2S)-N-[[(2S)-2-(3-cyanophenyl)oxetan-2-yl]methyl]-2-phenyl-cyclopropanecarboxamide] | 0.04 |
| COC(C)(CNC(=O)CCC1CCCC1)c1cccc(Cl)c1 (stereo not drawn) [Example 53, N-[2-(3-chlorophenyl)-2-methoxy-propyl]-3-cyclopentyl-propanamide] | 0.89 |
| N#Cc1cccc([C@@]2(CNC(=O)[C@H]3C[C@@H]3c3ccccc3)CCO2)c1 [Example 55, (1S,2S)-N-[[(2R)-2-(3-cyanophenyl)oxetan-2-yl]methyl]-2-phenyl-cyclopropanecarboxamide] | 0.79 |
| O=C(CC1CCCCC1)N[C@H]1C[C@H](c2cccc(Cl)c2)C1 [Example 56, N-[3-(1r,3r)-(3-chlorophenyl)cyclobutyl]-2-cyclohexyl-acetamide] | 3.19 |
| O=C(CC1CCCCC1)NCC1(c2cccc(Cl)c2)CCO1 (stereo not drawn) [Example 57, N-[[2-(3-chlorophenyl)oxetan-2-yl]methyl]-2-cyclohexyl-acetamide] | 0.43 |
| O=C(CC1CCC(F)(F)CC1)NCC1(c2cccc(Cl)c2)CCO1 (stereo not drawn) [Example 65, N-[[2-(3-chlorophenyl)oxetan-2-yl]methyl]-2-(4,4-difluorocyclohexyl)acetamide] | 1.92 |
| O=C(NCC1(c2ccnc(OC(F)F)c2)CCO1)[C@H]1C[C@@H]1c1ccccc1 (stereo partly drawn) [Example 67, (1S,2S)-N-[[2-[2-(difluoromethoxy)-4-pyridyl]oxetan-2-yl]methyl]-2-phenyl-cyclopropanecarboxamide] | 0.41 |
| O=C(NCC1(c2cccc(Cl)c2)COC1)[C@H]1C[C@@H]1c1ccccc1 [Example 68, (1S,2S)—N-[[3-(3-chlorophenyl)oxetan-3-yl]methyl]-2-phenyl-cyclopropanecarboxamide] | 0.2 |
| CO[C@@](C)(CNC(=O)CCC(O)C(C)(C)C)c1cccc(Cl)c1 (stereo partly drawn) [Example 69, N-[(2R)-2-(3-chlorophenyl)-2-methoxy-propyl]-4-hydroxy-5,5-dimethyl-hexanamide] | 6.29 |
| N#CCO[C@H](CNC(=O)[C@H]1C[C@@H]1c1ccccc1)c1cccc(Cl)c1 [Example 70, (1S,2S)—N-[(2S)-2-(3-chlorophenyl)-2-(cyanomethoxy)ethyl]-2-phenyl-cyclopropanecarboxamide] | 0.65 |
| O=C(NCC1CCCC1)NCC1(c2cccc(Cl)c2)COC1 [Example 72, 1-[[3-(3-chlorophenyl)oxetan-3-yl]methyl]-3-(cyclopentylmethyl)urea] | 0.87 |
| N#CCOC(CNC(=O)CC1CCCC1)c1cccc(Cl)c1 (stereo not drawn) [Example 73, N-[2-(3-chlorophenyl)-2-(cyanomethoxy)ethyl]-2-cyclopentyl-acetamide] | 2 |
| O=C(NCC(CO)c1cccc(Cl)c1)[C@H]1C[C@@H]1c1ccccc1 (stereo partly drawn) [Example 74, (1S,2S)—N-[2-(3-chlorophenyl)-3-hydroxy-propyl]-2-phenyl-cyclopropanecarboxamide] | 3.1 |
| O=C(NCC1CCCC1)NCC1(c2cccc(Cl)c2)CCC(=O)O1 (stereo not drawn) [Example 75, 1-[[2-(3-chlorophenyl)-5-oxo-tetrahydrofuran-2-yl]methyl]-3-(cyclopentylmethyl)urea] | 0.29 |
| O=C(NCC1(c2cccc(Cl)n2)CCO1)[C@H]1C[C@@H]1c1ccccc1 (stereo partly drawn) [Example 76, (1S,2S)—N-[[2-(6-chloro-2-pyridyl)oxetan-2-yl]methyl]-2-phenyl-cyclopropanecarboxamide] | 1.74 |
| O=C(NC/C(=C/CO)c1cccc(Cl)c1)[C@H]1C[C@@H]1c1ccccc1 [Example 77, (1S,2S)—N-[(E)-2-(3-chlorophenyl)-4-hydroxy-but-2-enyl]-2-phenyl-cyclopropanecarboxamide] | 0.34 |
| O=C(NC/C(=C/CO)c1cccc(Cl)c1)NCC1CCCC1 [Example 78, 1-[(E)-2-(3-chlorophenyl)-4-hydroxy-but-2-enyl]-3-(cyclopentylmethyl)urea] | 6.79 |
| CO[C@@](C)(CNC(=O)C1CC12CCCCC2)c1cccc(Cl)c1 (stereo partly drawn) [Example 82, N-[(2R)-2-(3-chlorophenyl)-2-methoxy-propyl]spiro[2.5]octane-2-carboxamide] | 0.29 |
| CO[C@@](C)(CNC(=O)C1CC12CCC(F)(F)CC2)c1cccc(Cl)c1 (stereo partly drawn) [Example 83, N-[(2R)-2-(3-chlorophenyl)-2-methoxy-propyl]-6,6-difluoro-spiro[2.5]octane-2-carboxamide] | 0.38 |

The remaining lines, values ahead:

| EC50 [µM] | Compound |
| --- | --- |
| 0.73 | O=C(NC[C@]1(c2cccc(Cl)c2)CCO1)[C@H]1C[C@@H]1c1ccccc1 [Example 39, (1S,2S)-N-[[(2R)-2-(3-chlorophenyl)oxetan-2-yl]methyl]-2-phenyl-cyclopropanecarboxamide] |
| 0.11 | O=C(NC[C@@]1(c2cccc(Cl)c2)CCO1)[C@H]1C[C@@H]1c1ccccc1 [Example 40, (1S,2S)-N-[[(2S)-2-(3-chlorophenyl)oxetan-2-yl]methyl]-2-phenyl-cyclopropanecarboxamide] |
| 1.65 | COc1cccc(NC(=O)NCC2(c3cccc(Cl)c3)CCO2)c1 (stereo not drawn) [Example 50, 1-[[2-(3-chlorophenyl)oxetan-2-yl]methyl]-3-(3-methoxyphenyl)urea] |
| 0.81 | O=C(NCC1(c2cccc(Cl)c2)CCO1)Nc1cccc(Cl)c1 (stereo not drawn) [Example 58] |
| 0.32 | O=C(NCC1CCCC1)NCC1(c2cccc(Cl)c2)CCO1 (stereo not drawn) [Example 59, 1-[[2-(3-chlorophenyl)oxetan-2-yl]methyl]-3-(cyclopentylmethyl)urea] |
| 1.05 | CC(C)(C)CNC(=O)NCC1(c2cccc(Cl)c2)CCO1 (stereo not drawn) [Example 60, 1-[[2-(3-chlorophenyl)oxetan-2-yl]methyl]-3-(2,2-dimethylpropyl)urea] |
| 7.6 | O=C(NCC1(c2cccc(Cl)c2)CCO1)C1CCCCC1 (stereo not drawn) [Example 61] |
| 0.42 | O=C(NCc1cccc(Cl)c1)NCC1(c2cccc(Cl)c2)CCO1 (stereo not drawn) [Example 62, 1-[(3-chlorophenyl)methyl]-3-[[2-(3-chlorophenyl)oxetan-2-yl]methyl]urea] |
| 5.19 | O=C(CC12CC(C1)C2)NCC1(c2cccc(Cl)c2)CCO1 (stereo not drawn) [Example 63] |
| 2.75 | O=C(NCC1(c2cccc(Cl)c2)CCO1)C1CC2(CCC2)C1 (stereo not drawn) [Example 64, N-[[2-(3-chlorophenyl)oxetan-2-yl]methyl]spiro[3.3]heptane-2-carboxamide] |
| 0.08 | O=C1CCC(CNC(=O)[C@H]2C[C@@H]2c2ccccc2)(c2cccc(Cl)c2)O1 (stereo partly drawn) [Example 66, (1S,2S)-N-[[2-(3-chlorophenyl)-5-oxo-tetrahydrofuran-2-yl]methyl]-2-phenyl-cyclopropanecarboxamide] |

— patent US20260308149A1, “NOVEL CARBOXAMIDE DERIVATIVES” (ANGELINI PHARMA S.P.A., priority 2023, published 2026)
